Blank lines part the entries; values can stand above or below the molecule they belong to.
How the values were obtained:
[1] = target: T1, OATP1B1 (Homo sapiens, UniProt Q9Y6L6); format: cell-based; conditions: for Reduction of OATP1B1 function: overexpressing HEK293 cells, 10 μM TKI screen; for Mechanism of OATP1B1 inhibition: kinetic analysis (Dixon plot) and pre-incubation effects
T1 sequence (Q9Y6L6 1-691): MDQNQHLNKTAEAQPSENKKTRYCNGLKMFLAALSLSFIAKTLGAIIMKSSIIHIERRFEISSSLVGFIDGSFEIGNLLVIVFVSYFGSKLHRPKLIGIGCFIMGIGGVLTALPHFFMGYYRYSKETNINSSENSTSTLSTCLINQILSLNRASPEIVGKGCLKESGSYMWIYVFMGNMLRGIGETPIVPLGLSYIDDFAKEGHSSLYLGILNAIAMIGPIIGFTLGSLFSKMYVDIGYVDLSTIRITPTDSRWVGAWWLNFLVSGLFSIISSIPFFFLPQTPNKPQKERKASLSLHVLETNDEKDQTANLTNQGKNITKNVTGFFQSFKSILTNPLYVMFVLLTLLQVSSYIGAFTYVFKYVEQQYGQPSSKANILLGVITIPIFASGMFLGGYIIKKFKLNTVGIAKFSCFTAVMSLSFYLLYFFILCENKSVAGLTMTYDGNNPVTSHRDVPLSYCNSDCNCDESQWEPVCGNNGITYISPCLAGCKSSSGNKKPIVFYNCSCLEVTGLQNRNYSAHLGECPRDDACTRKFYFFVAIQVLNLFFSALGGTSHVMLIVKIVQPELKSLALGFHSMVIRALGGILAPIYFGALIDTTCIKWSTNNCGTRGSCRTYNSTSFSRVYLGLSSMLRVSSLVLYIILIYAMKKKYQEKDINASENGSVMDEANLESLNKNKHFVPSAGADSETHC

[2] = target: LYN kinase (Homo sapiens, UniProt P07948); assay: Kinase hotspot assay against LYN kinase; format: biochemical; conditions: for Inhibition of LYN kinase activity: 10-dose curve from 50 μM, 10 μM ATP
[3] = cited from earlier work
[4] = target: T1, OATP1B1; assay: Cellular accumulation of 3H-lapatinib; format: in vitro ADME; conditions: 3H-lapatinib 1 μM
[5] = test system: OATP1B1; conditions: ref prescribing information; cited from earlier work
[6] = test system: OATP1B1; assay: Surface expression of OATP1B1 by biotinylation; format: cell-based, human; conditions: 10 μM nilotinib
[7] = test system: OATP1B1; assay: Mass spectrometric analysis of OATP1B1 tyrosine phosphorylation; format: cell-based, human; conditions: 10 μM nilotinib 15 minutes
[8] = target: T1, OATP1B1; assay: OATP1B1-dependent uptake of 3H-EβG in human plateable hepatocytes; format: cell-based; conditions: 10 μM, 15 min pre-incubation; 3H-EβG 1 μM, 2 minutes
[9] = test system: PKC; conditions: concentrations of nilotinib used in the study; cited from earlier work

Chain of LYN kinase (P07948 whole entry): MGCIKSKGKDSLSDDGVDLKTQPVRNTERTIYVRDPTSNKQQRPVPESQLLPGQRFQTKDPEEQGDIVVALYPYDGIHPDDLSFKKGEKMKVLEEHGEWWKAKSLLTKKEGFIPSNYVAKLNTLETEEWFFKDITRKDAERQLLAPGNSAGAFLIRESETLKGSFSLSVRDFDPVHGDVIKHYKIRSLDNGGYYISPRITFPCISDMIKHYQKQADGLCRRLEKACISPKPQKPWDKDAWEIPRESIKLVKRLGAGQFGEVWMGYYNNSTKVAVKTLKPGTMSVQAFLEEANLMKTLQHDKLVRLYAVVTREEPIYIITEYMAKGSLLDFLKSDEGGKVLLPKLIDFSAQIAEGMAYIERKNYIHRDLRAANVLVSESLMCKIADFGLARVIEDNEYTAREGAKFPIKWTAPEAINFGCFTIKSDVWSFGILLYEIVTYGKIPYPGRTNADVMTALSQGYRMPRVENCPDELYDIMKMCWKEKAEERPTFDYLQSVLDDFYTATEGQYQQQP

SMILES: COc1cc2nccc(Oc3ccc(NC(=O)C4(C(=O)Nc5ccc(F)cc5)CC4)cc3)c2cc1OC [cabozantinib]
Reduction of OATP1B1 function [1]: > 75% | IC50 [2]: 15 to 685 nM

SMILES: CC(C)(C)c1nc(-c2cccc(NS(=O)(=O)c3c(F)cccc3F)c2F)c(-c2ccnc(N)n2)s1 [dabrafenib]
Reduction of OATP1B1 function [1]: > 75% | Effect on systemic concentrations of the OATP1B1 substrate rosuvastatin [3]: increase the systemic concentrations

SMILES: O=C(Nc1cnn2ccc(N3CCC[C@@H]3c3cc(F)ccc3F)nc12)N1CC[C@H](O)C1 [larotrectinib]
OATP1B1 substrate/inhibitor status per prescribing information [5]: neither a substrate nor an inhibitor of OATP1B1

SMILES: Cc1ccc(Nc2nccc(N(C)c3ccc4c(C)n(C)nc4c3)n2)cc1S(N)(=O)=O [pazopanib]
Effect on systemic concentrations of the OATP1B1 substrate rosuvastatin [3]: increase the systemic concentrations

SMILES: CC(=O)Nc1cccc(-n2c(=O)n(C3CC3)c(=O)c3c(Nc4ccc(I)cc4F)n(C)c(=O)c(C)c32)c1 [trametinib]
Mechanism of OATP1B1 inhibition [1]: competitive | Inhibition of LYN kinase activity [2]: did not inhibit

Continued, in another order:

Reduction of OATP1B1 function [1]: > 75%
SMILES: CNC(=O)c1ccccc1Sc1ccc2c(/C=C/c3ccccn3)n[nH]c2c1 [axitinib]

Inhibition of LYN kinase activity [2]: did not inhibit | OATP1B1 substrate status [4]: transported substrate of OATP1B1
SMILES: CS(=O)(=O)CCNCc1ccc(-c2ccc3ncnc(Nc4ccc(OCc5cccc(F)c5)c(Cl)c4)c3c2)o1 [lapatinib]
OATP1B1 substrate/inhibitor status per prescribing information [5]: can reduce OATP1B1 function

Mechanism of OATP1B1 inhibition [1]: predominantly non-competitive | Reduction of OATP1B1 function [1]: > 75% | Effect on OATP1B1-dependent transport ex vivo in human hepatocytes [8]: reduces OATP1B1-dependent transport
SMILES: Cc1cn(-c2cc(NC(=O)c3ccc(C)c(Nc4nccc(-c5cccnc5)n4)c3)cc(C(F)(F)F)c2)cn1 [nilotinib]
Effect on membrane surface expression of OATP1B1 [6]: not associated with significantly reduced membrane surface expression | Effect on overall tyrosine phosphorylation of OATP1B1 ([7]; overexpressing HEK293 cells): no significant effect | Effect on OATP1B1 phosphorylation at Y645 ([7]; P<0.05): significantly reduced | Effect on OATP1B1 phosphorylation of Y640 alone ([7]; trend, P = 0.11): not significantly reduced | Effect on PKC activity [9]: do not affect PKC activity

Reduction of OATP1B1 function [1]: > 75%
SMILES: CNC(=O)c1cc(Oc2ccc(NC(=O)Nc3ccc(Cl)c(C(F)(F)F)c3)cc2)ccn1 [sorafenib]

Reference: PMC8358987 (Clinical cancer research : an official journal of the …, 2021)
